From patent US12540120B2, “Herbicidal compounds” (SYNGENTA CROP PROTECTION AG, priority 2019, dated 2026)

Key:
Assay type in all cases: in vivo
[1] = tested on: Amaranthus retoflexus (AMARE); test: B2 Post-Emergence Efficacy—Test 2; settings: post-emergence application, 250 g/ha, evaluated after 13 days (Test 2)
Protocol: (§1) B2 Post-Emergence Efficacy—Test 2 Seeds of a variety of test species are sown in standard soil in pots:—Solanum nigrum (SOLNI), Amaranthus retoflexus (AMARE), Setaria faberi (SETFA), Echinochloa crus-galli (ECHCG), Ipomoea hederacea (IPOHE), Lolium perenne (LOLPE). After 8 days cultivation (post-emergence) under controlled conditions in a glasshouse (at 24/16° C., day/night; 14 hours light; 65% humidity), the plants are sprayed with an aqueous spray solution derived from the formulation of the technical active ingredient in acetone/water (50:50) solution containing 0.5% Tween 20 (polyoxyethylene sorbitan monolaurate, CAS RN 9005-64-5). Compounds are applied at 250 g/ha. The test plants are then grown in a glasshouse under controlled conditions in a glasshouse (at 24/16° C., day/night; 14 hours light; 65% humidity) and watered twice daily. After 13 days, the test is evaluated for the percentage damage caused to the plant. The biological activities are assessed on a five point scale (5=80-100%; 4=60-79%; 3=40-59%; 2=20-39%; 1=0-19%). A blank value in the table is indicative that the compound was not tested on that species.

[2] = tested on: Echinochloa crus-galli (ECHCG); test: B2 Post-Emergence Efficacy—Test 2; settings: post-emergence application, 250 g/ha, evaluated after 13 days (Test 2)
Protocol: as §1

[3] = tested on: Ipomoea hederacea (IPOHE); test: B2 Post-Emergence Efficacy—Test 2; settings: post-emergence application, 250 g/ha, evaluated after 13 days (Test 2)
Protocol: as §1

Lolium perenne (LOLPE) [4] = test: B2 Post-Emergence Efficacy—Test 2; settings: post-emergence application, 250 g/ha, evaluated after 13 days (Test 2)
Protocol: as §1

Setaria faberi (SETFA) [5] = test: B2 Post-Emergence Efficacy—Test 2; settings: post-emergence application, 250 g/ha, evaluated after 13 days (Test 2)
Protocol: as §1

Solanum nigrum (SOLNI) [6] = test: B2 Post-Emergence Efficacy—Test 2; settings: post-emergence application, 250 g/ha, evaluated after 13 days (Test 2)
Protocol: as §1

[7] = tested on: Amaranthus retoflexus (AMARE); test: B5 Pre-Emergence Efficacy—Test 2; settings: 250 g/ha, evaluated after 13 days
Protocol: (§2) B5 Pre-Emergence Efficacy—Test 2 Seeds of a variety of test species were sown in standard soil in pots: Solanum nigrum (SOLNI), Amaranthus retoflexus (AMARE), Setaria faberi (SETFA), Echinochloa crus-galli (ECHCG), Ipomoea hederacea (IPOHE), Lolium perenne (LOLPE). After cultivation for one day (pre-emergence) under controlled conditions in a glasshouse (at 24/16° C., day/night; 14 hours light; 65% humidity), the plants were sprayed with an aqueous spray solution derived from the formulation of the technical active ingredient in acetone/water (50:50) solution containing 0.5% Tween 20 (polyoxyethelyene sorbitan monolaurate, CAS RN 9005-64-5). Compounds are applied at 250 g/ha. The test plants were then grown in a glasshouse under controlled conditions (at 24/16° C., day/night; 14 hours light; 65% humidity) and watered twice daily. After 13 days, the test is evaluated for the percentage damage caused to the plant. The biological activities are assessed on a five point scale (5=80-100%; 4=60-79%; 3=40-59%; 2=20-39%; 1=0-19%). A blank value in the table is indicative that the compound was not tested on that species.

Solanum nigrum (SOLNI) [8] = test: B5 Pre-Emergence Efficacy—Test 2; settings: 250 g/ha, evaluated after 13 days
Protocol: as §2

[9] = tested on: Echinochloa crus-galli (ECHCG); test: B5 Pre-Emergence Efficacy—Test 2; parameters: key: 5-point scale: 5=80-100%, 4=60-79%, 3=40-59%, 2=20-39%, 1=0-19% damage; settings: 250 g/ha, evaluated after 13 days
Protocol: as §2

[10] = tested on: Ipomoea hederacea (IPOHE); test: B5 Pre-Emergence Efficacy—Test 2; parameters: key: 5-point scale: 5=80-100%, 4=60-79%, 3=40-59%, 2=20-39%, 1=0-19% damage; settings: 250 g/ha, evaluated after 13 days
Protocol: as §2

Lolium perenne (LOLPE) [11] = test: B5 Pre-Emergence Efficacy—Test 2; parameters: key: 5-point scale: 5=80-100%, 4=60-79%, 3=40-59%, 2=20-39%, 1=0-19% damage; settings: 250 g/ha, evaluated after 13 days
Protocol: as §2

Setaria faberi (SETFA) [12] = test: B5 Pre-Emergence Efficacy—Test 2; parameters: key: 5-point scale: 5=80-100%, 4=60-79%, 3=40-59%, 2=20-39%, 1=0-19% damage; settings: 250 g/ha, evaluated after 13 days
Protocol: as §2

Row | SMILES | percentage damage caused to the plant, five point scale, AMARE [1] | percentage damage caused to the plant, five point scale, ECHCG [2] | percentage damage caused to the plant, five point scale, IPOHE [3] | percentage damage caused to the plant, five point scale, LOLPE (Lolium perenne (LOLPE) [4]) | percentage damage caused to the plant, five point scale, SETFA (Setaria faberi (SETFA) [5]) | percentage damage caused to the plant, five point scale, SOLNI (Solanum nigrum (SOLNI) [6]) | Control of weed species after pre-emergence application, AMARE (percentage damage, five point scale) [7] | Control of weed species after pre-emergence application, SOLNI (percentage damage, five point scale) (Solanum nigrum (SOLNI) [8]) | Control of weed species after pre-emergence application, ECHCG (percentage damage, five point scale) [9] | Control of weed species after pre-emergence application, IPOHE (percentage damage, five point scale) [10] | Control of weed species after pre-emergence application, LOLPE (percentage damage, five point scale) (Lolium perenne (LOLPE) [11]) | Control of weed species after pre-emergence application, SETFA (percentage damage, five point scale) (Setaria faberi (SETFA) [12])
1 | Cc1nn(C)c(=O)c(-c2c(F)ccc(Cl)c2CCc2ccc(O)cc2)c1O [Compound A-1.037] | 1 (1=0-19%) | 3 (3=40-59%) | 5 (5=80-100%) | 1 (1=0-19%) | 5 (5=80-100%) | 5 (5=80-100%) | 1 (1=0-19%) | 2 (2=20-39%) | 2 (2=20-39%) | 0 | 0 | 0
2 | Cc1nn(C)c(=O)c(-c2c(F)ccc(Cl)c2CCc2ccc(C3CC3)cc2)c1O [Compound A-1.038] | 5 (5=80-100%) | 5 (5=80-100%) | 5 (5=80-100%) | 5 (5=80-100%) | 5 (5=80-100%) | 5 (5=80-100%) | 5 (5=80-100%) | 5 (5=80-100%) | 5 (5=80-100%) | 2 (2=20-39%) | 5 (5=80-100%) | 0
3 | CSc1ccc(CCc2c(Cl)ccc(F)c2-c2c(O)c(C)nn(C)c2=O)cc1 [Compound A-1.039, 4-[3-chloro-6-fluoro-2-[2-(4-methylsulfanylphenyl)ethyl]-phenyl]-5-hydroxy-2,6-dimethyl-pyridazin-3-one] | 5 (5=80-100%) | 5 (5=80-100%) | 5 (5=80-100%) | 5 (5=80-100%) | 5 (5=80-100%) | 5 (5=80-100%) | 5 (5=80-100%) | 5 (5=80-100%) | 5 (5=80-100%) | 3 (3=40-59%) | 4 (4=60-79%) | 5 (5=80-100%)
4 | Cc1nn(C)c(=O)c(-c2c(F)ccc(Cl)c2CCc2ccc(C(=O)O)cc2)c1O [Compound A-1.040] | 3 (3=40-59%) | 0 | 0 | 0 | 0 | 3 (3=40-59%) | 0 | 0 | 0 | 0 | 0 | 0
